US9586999B2, “Methods and compositions related to improving properties of pharmacological agents targeting nervous system” (University of Utah Research Foundation, priority 2006, dated 2017)

Key:
[1] = test system: formalin-induced paw licking; assay: Mouse formalin test of inflammatory pain; format: in vivo
Procedure: An injection of 0.5% formalin is made into the planter region of a mouse right hind paw. This elicits a distinct biphasic behavioral profile characterized by the mouse licking the affected paw. Immediately following the injection the mouse licks the paw for about 10 minutes. This is phase 1 (acute) and is followed by a brief latent period where there is little behavioral activity. A more prolonged period of about 20 to 30 minutes of paw licking ensues which constitutes phase 2 (inflammatory).
Prior to the administration of the active peptide, drug or vehicle each mouse undergoes a 15-minute conditioning period in one of several 6″ tall plexiglass observation tubes (4″ diameter) that are placed in front of a mirror. […] One hour after treatment, formalin was injected sub-dermally (20 μl; 27 gauge needle) into the plantar surface of the right hind foot. The bevel of the needle is placed facing down toward the skin surface. Following the injection of the formalin each animal is observed for first 2 minutes of each 5 minute epoch for a total of 45 minutes. The cumulative length of licking for each 2 minute time period was measured. An animal receiving the requisite volume of vehicle was alternated with each mouse given GAL-BBB2, Gal 1-16, or gabapentin. Animals were euthanized following the conclusion of the experiment.
Area under the curve (AUC) determination was made using the GraphPad Prism Version 3.03. Total AUC is calculated for both the test and control groups for both the acute and inflammatory phases. The AUC for individual animals for each phase is also calculated and converted to percentage of total AUC of control. The average percentages and SEM for both the drug treated and control were calculated and tested for significant difference.

corneal kindling = assay: Mouse corneal kindling acquisition; format: in vivo
Procedure: CF#1 mice were randomized to receive either vehicle (0.9% saline) or NAX-5055. Mice in the NAX-5055 group received two doses of NAX-5055 twelve (12 h) and 1 h prior to their first kindling stimulation. One hour (1 h) prior to each subsequent stimulation, mice in the NAX-5055 treated group received another dose of NAX-5055 (4 mg/kg, i.p.). Mice were stimulated twice daily for 16 days. Results are expressed as the mean seizure score per stimulation. As noted above, the results for the NAX-5055 treated mice segregated into two populations; i.e., sensitive (green line) and insensitive (blue line).
Mice treated with NAX-5055 (see legend to Figure X for experimental details) segregated into two treatment groups; i.e., NAX-5055 sensitive and NAX-5055 insensitive. Results are expressed as the number of stimulations required to reach a particular seizure score+/−S.E.M.; i.e., 1 to 5. […] One Way ANOVA, p<0.0209; post hoc analysis: saline vs. NAX-5055 insensitive, p>0.05; NAX-5055 sensitive vs. NAX-5055 insensitive, p<0.05.
Daily electrical stimulation via the cornea results in a stable kindled state within 15-20 days. This is an ideal model to initially assess the ability of selected galanin analogs to prevent kindling acquisition because the amount of peptide required is much lower than what is required for a rat kindling study. Those compounds found to be effective in preventing the acquisition of kindling are subsequently evaluated in a more traditional rat kindling model; i.e., amygdala kindled rat. For the proposed studies two groups of mice (n=8 mice per group) are randomized to receive either vehicle or peptide prior to each kindling stimulation. […] At the time to peak effect (obtained from the 6 Hz study), they are stimulated via corneal electrodes with a subconvulsive current (50 Hz, 3 mA, for 3.0 sec) and observed for the presence or absence of seizure activity. Seizure activity is scored according to the criteria established by Racine et al., (1972). Animals receive two stimulations per day until they display their first Stage 5 behavioral seizure and then once daily until they display stable secondarily generalized seizures (5 consecutive Stage 4-5 seizures). Peptide treatment continues in the experimental group until the point that the control mice become fully kindled. At this point, mice in both groups are permitted a one-week stimulus and treatment-free week. On the 8th day, mice in both groups are stimulated in the absence of peptide or vehicle and their seizure score recorded.
The ability of the blood-brain-barrier penetrant galanin-based neuropeptide NAX-5055 to prevent the development of corneal kindling was studied in CF#1 mice. […] Following stimulation seizure activity was scored on a scale of 0-5 as established by Racine (1972).

[2] = test system: hippocampal kindled seizures; assay: Hippocampal kindled rat model of partial epilepsy; format: in vivo; settings: i.p.; decreased from 5
[3] = test system: tonic-extension (maximal electroshock) seizures; assay: Maximal electroshock seizure (MES) test; format: in vivo, mouse; settings: 4 mg/kg i.p., tested one hour later
Source text: Abolition of the hindleg tonic extensor component of the seizure is used as the endpoint.

[4] = 4 mg/kg i.p. twice daily, NAX-5055 sensitive group

## Sar-Trp-Thr-Leu-Asn-Ser-Ala-Gly-Tyr-Leu-Leu-Gly-Pro-Lys-Lys-(Lys-palm)-Lys-NH2 [NAX 5055]
[1]; 5 mg/kg
  effect compared with gabapentin: equivalent to a 10 mg/kg dose of gabapentin
[1]; 0.52-5 mg/kg i.p., 1 h before formalin
  paw licking, acute and inflammatory phase: dose-dependent reduction in paw licking
[1]; mouse formalin assay
  phase II response at the active dose: (“flat phase II”)
[1]; mouse formalin assay of inflammatory pain
  Active at: 5 mg/kg
[1]; mouse, in vivo
  potency in mouse formalin assay: potent
Corneal kindling; 4 mg/kg i.p.
  kindling acquisition: can delay kindling acquisition
Corneal kindling; [4]
  Stage 5 seizures: none of the mice in the NAX-5055 sensitive group reached Stage 5 seizures
  more stimulations to reach Stage 2 and Stage 3 seizures: 35-40%
  stimulations required to reach a Stage 1 seizure: two times more stimulations
[2]
  seizure score: 3
[3]
  activity in maximal electroshock seizure test: completely inactive
